Results reported in publication PMC10873626, “Acceleration of infectious disease drug discovery and development using a humanized model of drug metabolism” (Proceedings of the National Academy of Sciences of the …, 2024).
In brackets after ≈: the same amount, converted by molar mass. Read-outs that look alike come from different tables or passages of the source.

How the values were obtained:
[1] = hepatocytes
[2] = mouse, hepatocytes
[3] = mouse, hepatocytes; remark: listed apart in the source
CYP = details: cited from earlier work
[4] = microsomes
[5] = human, 100 mg BID; ref SI 8; cited from earlier work
[6] = Oral pharmacokinetics in WT mice; details: female, mouse, whole blood
[7] = Oral pharmacokinetics in 8HUM mice; details: female, mouse, whole blood
[8] = mouse, microsomes
[9] = mouse, microsomes; remark: listed apart in the source
[10] = mouse, microsomes; remark: listed apart in the source
[11] = DDI: pretomanid PK after CYP3A4 inducer pre-treatment in 8HUM; format: in vivo, mouse (8HUM)
Experimental: (§1) With the exception of quinidine PK, female mice were used in all experiments. Dose levels and schedules were as detailed in SI Appendix. Serial blood samples (10 µL) were taken from the tail vein at the timepoints shown, diluted into 9 volumes of Milli-Q water, and stored at −20 °C prior to bioanalysis. Samples from mice infected with T. cruzi were snap-frozen in liquid nitrogen and thawed three times before storage at −20 °C until bioanalysis. Samples from mice infected with M. tuberculosis (15 µL) were mixed with two volumes of Milli-Q and stored at −70 °C until bioanalysis. All non-compartmental analysis, modeling, and simulation of PK was carried out using Phoenix WinNonlin version 8.3.1.5014 (Certara), as described in SI Appendix.
(§2) Mouse hepatic microsomes were prepared by homogenization of freshly-isolated liver in ice-cold SET buffer (0.25 M sucrose, 5 mM EDTA, and 20 mM Tris-HCL, pH 7.4) to make a 10% (w/v) homogenate solution (9 ml SET buffer/1 g liver) using a Polytron PT-MR-2100 homogenizer. Liver homogenates were centrifuged at 2000 rpm (Sorvall RTH-250 rotor) for 10 minutes at 4 °C and the supernatant then centrifuged at 12000 rpm (Sorvall SS-34 rotor) for 20 minutes at 4 °C. The resulting supernatant was centrifuged at 29130 rpm (Sorvall TFT-45.6 rotor) for 90 minutes at 4 °C and the microsomal pellets were resuspended in ice-cold SET buffer for storage at –70 °C.
(§3) Primary hepatocytes were freshly prepared from 8HUM using a modified version of Charni-Natan and Goldstein’s STAR Protocol(1). Following termination by cervical dislocation and femoral vessel cut […]
(§4) canula (Merck) and the liver perfused using 30 mL Hanks Buffered Saline Solution (HBSS, -Ca 2+ -Mg2+, no phenol red, Gibco), containing 0.5 mM EDTA and 25 mM HEPES, running at a flow rate of 3 mL/min at approximately 37 °C. Subsequently, 10 mL HBSS digestion buffer (Ca2+ & Mg2+, no phenol red, Gibco), including 25 mM HEPES and 270 µL liberase (Merck) running at a flow rate of 3 mL/min and ~37 °C was then perfused. The final perfusion step utilised 30 mL HBSS digestion buffer containing 25 mM HEPES and 20 mg collagenase (Merck) at approximately 37 °C. The liver was excised, gall bladder removed and placed in a 10 cm petri dish where it was covered with 10 mL plating medium WME containing CM4000. The liver capsule was gently agitated with a glass rod and forceps to disperse the liver cells. Cells were then poured through a 100 µm nylon strainer (Falcon, Corning, NY, USA) into a 50 mL collection tube and topped up to 50 mL with plating medium at 37 °C. All solutions were perfused using a Miniplus peristaltic pump (Gilson, Middleton, WI, USA) and run through a 20 mL Intrafix Safeset bubble trap (Braun, Melsungen, Germany) to prevent potential blocking of vessels during perfusion. […]

[12] = DDI: pretomanid PK after CYP3A4 inducer pre-treatment in WT mice; format: in vivo, mouse
Experimental: as §1, §2, §3, §4

M. tuberculosis H37Rv = experiment: Acute M. tuberculosis infection efficacy model in 8HUM (lung CFU); format: in vivo, Mycobacterium tuberculosis
M. tuberculosis = details: cited from earlier work
[13] = human, in vivo; cited from earlier work
[14] = 8HUM pre-treated with efavirenz (40 mg/kg once daily for three days)
[15] = 8HUM pre-treated with rifampicin (2 mg/kg once, 24 hr prior)
[16] = WT pre-treated with efavirenz (40 mg/kg once daily for three days)
[17] = WT pre-treated with rifampicin (2 mg/kg once, 24 hr prior)

CCOc1ccc2ccc(=O)oc2c1 [7-ethoxycoumarin]
CLint, Human [1]: 8.2 mL/min/g liver | CLint, 8HUM [2]: 13.8 mL/min/g liver | CLint, WT [3]: 39 mL/min/g liver

CC1(C)S[C@@H]2[C@H](NC(=O)[C@H](N)c3ccc(O)cc3)C(=O)N2[C@H]1C(=O)O [Amoxicillin]
CYP interaction: Inhibitor (CYP): 2C19

CC(C)CN(C[C@@H](O)[C@H](Cc1ccccc1)NC(=O)O[C@H]1CCOC1)S(=O)(=O)c1ccc(N)cc1 [Amprenavir]
CYP interaction: Inhibitor (CYP): 3A4

CO[C@H]1O[C@@H]2O[C@@]3(C)CC[C@H]4[C@H](C)CC[C@@H]([C@H]1C)[C@@]24OO3 [Artemether]
CYP interaction: Inhibitor (CYP): 3A4

CC[C@H]1OC(=O)[C@H](C)[C@@H](O[C@H]2C[C@@](C)(OC)[C@@H](O)[C@H](C)O2)[C@H](C)[C@@H](O[C@@H]2O[C@H](C)C[C@H](N(C)C)[C@H]2O)[C@](C)(OC)C[C@@H](C)C(=O)[C@H](C)[C@@H](O)[C@]1(C)O [Clarithromycin]
CLint, Human [4]: 1.4 mL/min/g liver | CYP interaction: Substrate (CYP): 3A4

C[C@]1(COc2ccc(N3CCC(Oc4ccc(OC(F)(F)F)cc4)CC3)cc2)Cn2cc([N+](=O)[O-])nc2O1 [Delamanid]
CLint, Human [4]: 0.8 mL/min/g liver | apparent volume of distribution (V/F) [5]: 11.9 L/kg | oral clearance (CL/F) [5]: 9.12 mL/min/kg | CL/F [6]: 110 mL/min/kg | CL/F [7]: 20.7 mL/min/kg

O=C(O)Cc1ccccc1Nc1c(Cl)cccc1Cl [Diclofenac]
CLint, 8HUM [2]: 1.8 mL/min/g liver

CC[C@H]1OC(=O)[C@H](C)[C@@H](O[C@H]2C[C@@](C)(OC)[C@@H](O)[C@H](C)O2)[C@H](C)[C@@H](O[C@@H]2O[C@H](C)C[C@H](N(C)C)[C@H]2O)[C@](C)(O)C[C@@H](C)C(=O)[C@H](C)[C@@H](O)[C@]1(C)O [Erythromycin]
CLint, Human [4]: 3.3 mL/min/g liver | CLint, Human [1]: 0.5 mL/min/g liver | CLint, 8HUM [2]: 0.5 mL/min/g liver | CLint, WT [3]: 1.3 mL/min/g liver

Cc1cc(C#N)cc(C)c1Oc1nc(Nc2ccc(C#N)cc2)nc(N)c1Br [Etravirine]
CLint, Human [4]: 1 mL/min/g liver

CCCCN(CCCC)CCC(O)c1cc2c(Cl)cc(Cl)cc2c2cc(C(F)(F)F)ccc12 (stereo not drawn) [Halofantrine]
CLint, Human [4]: 1.7 mL/min/g liver | CYP interaction: Substrate (CYP): 3A4

CC(=O)NC[C@H]1CN(c2ccc(N3CCOCC3)c(F)c2)C(=O)O1 [Linezolid]
CLint, 8HUM [8]: 0.5 mL/min/g liver | CLint, WT [9]: 0.5 mL/min/g liver | CLint, CypC4KO [10]: 0.5 mL/min/g liver | CLint, 8HUM [2]: 0.5 mL/min/g liver | CYP interaction: Substrate (CYP): 3A4

OC(c1cc(C(F)(F)F)nc2c(C(F)(F)F)cccc12)C1CCCCN1 (stereo not drawn) [Mefloquine]
CLint, Human [4]: 0.5 mL/min/g liver | CLint, CypC4KO [10]: 0.5 mL/min/g liver | CLint, Human [1]: 0.5 mL/min/g liver | CLint, 8HUM [2]: 0.5 mL/min/g liver | CLint, WT [3]: 0.5 mL/min/g liver

CO[C@H]1C[C@H](O[C@H]2[C@H](C)[C@@H](O[C@@H]3O[C@H](C)C[C@H](N(C)C)[C@H]3O)[C@@H](C)C[C@@]3(CO3)C(=O)[C@H](C)[C@@H](O)[C@@H](C)[C@@H](C)OC(=O)[C@@H]2C)O[C@@H](C)[C@@H]1O [Oleandomycin]
CLint, Human [4]: 18.5 mL/min/g liver | CLint, CypC4KO [10]: 50 mL/min/g liver | CYP interaction: Inhibitor (CYP): 3A4

CCOc1ccc(NC(C)=O)cc1 [Phenacetin]
CLint, 8HUM [2]: 1.3 mL/min/g liver

CC[C@@H]([C@H](C)O)n1ncn(-c2ccc(N3CCN(c4ccc(OC[C@@H]5CO[C@@](Cn6cncn6)(c6ccc(F)cc6F)C5)cc4)CC3)cc2)c1=O [Posaconazole]
CLint, Human [4]: 0.5 mL/min/g liver | CLint, 8HUM [8]: 0.5 mL/min/g liver | CLint, WT [9]: 0.5 mL/min/g liver

O=[N+]([O-])c1cn2c(n1)OC[C@@H](OCc1ccc(OC(F)(F)F)cc1)C2 [Pretomanid]
decrease in AUC of pretomanid [11, 14]: 54% | decrease in Cmax of pretomanid [11, 14]: 14% | decrease in AUC of pretomanid [11, 15]: 51% | decrease in Cmax of pretomanid [11, 15]: 25% | decrease in AUC of pretomanid [12, 16]: 65% | decrease in Cmax of pretomanid [12, 16]: 31% | decrease in AUC of pretomanid [12, 17]: 10% | decrease in Cmax of pretomanid [12, 17]: 6% | efficacy in 8HUM compared with WT (lung CFU) (M. tuberculosis H37Rv; M. tuberculosis infection, once a day for 8 days): less effective in 8HUM | CLint, Human [4]: 0.5 mL/min/g liver | CLint, 8HUM [8]: 0.5 mL/min/g liver | CLint, WT [9]: 0.5 mL/min/g liver | minimum inhibitory concentration (M. tuberculosis): 60 ng/mL (≈ 0.167 µM) | decrease in AUC of pretomanid [13]: 35% | decrease in Cmax of pretomanid [13]: 28% | CYP interaction: Substrate (CYP): 3A4 | CL/F [6]: 4.43 mL/min/kg | CL/F [7]: 2.17 mL/min/kg

[H]/N=C(\N/C(=N/[H])Nc1ccc(Cl)cc1)NC(C)C [Proguanil]
CLint, Human [4]: 0.3 mL/min/g liver | CLint, 8HUM [8]: 0.5 mL/min/g liver | CLint, WT [9]: 0.5 mL/min/g liver | CYP interaction: Substrate (CYP): 2C19

C=C[C@H]1C[N@@]2CC[C@H]1C[C@@H]2[C@@H](O)c1ccnc2ccc(OC)cc12 [Quinidine]
CYP interaction: Inhibitor (CYP): 2D6

CO[C@H]1/C=C/O[C@@]2(C)Oc3c(C)c(O)c4c(O)c(c(/C=N/N5CCN(C)CC5)c(O)c4c3C2=O)NC(=O)/C(C)=C\C=C\[C@H](C)[C@H](O)[C@@H](C)[C@@H](O)[C@@H](C)[C@H](OC(C)=O)[C@@H]1C [Rifampicin]
CLint, Human [4]: 0.8 mL/min/g liver

CO[C@H]1/C=C/O[C@@]2(C)Oc3c(C)c(O)c4c(O)c(c(/C=N/N5CCN(C6CCCC6)CC5)c(O)c4c3C2=O)NC(=O)/C(C)=C\C=C\[C@H](C)[C@H](O)[C@@H](C)[C@@H](O)[C@@H](C)[C@H](OC(C)=O)[C@@H]1C [Rifapentine]
CYP interaction: Inducer (CYP): 2C8, 2C9

CC(C)c1nc(CN(C)C(=O)N[C@H](C(=O)N[C@@H](Cc2ccccc2)C[C@H](O)[C@H](Cc2ccccc2)NC(=O)OCc2cncs2)C(C)C)cs1 [Ritonavir]
CLint, Human [4]: 6.6 mL/min/g liver

C[C@H](Cn1cnc2c(N)ncnc21)OCP(=O)(O)O [Tenofovir]
CYP interaction: Substrate (CYP): 1A2

COc1c(N2C[C@@H]3CCCN[C@@H]3C2)c(F)cc2c(=O)c(C(=O)O)cn(C3CC3)c12 [moxifloxacin]
log CFU reduction in the lungs compared to the control group (M. tuberculosis H37Rv; 8HUM, day 9, 30 mg/kg QD): 3.9 log CFU
